Patent US12604891B2, “Antifoulant marine structures compositions and methods thereof” (THE TEXAS A&M UNIVERSITY SYSTEM, priority 2020, dated 2026)

Key:
Type in all cases: cell-based
[1] = test system: gram-positive and gram-negative bacteria; assay: Laboratory testing, overall comparison of antimicrobials; conditions: summary
Source text: E. coli is a gram-negative bacteria that has a more complicated cell wall structure which makes this bacteria more difficult to penetrate and mitigate. In contrast, S. aureus is a gram positive bacteria and is naturally more susceptible to antimicrobials and, thus, may be easier to control.

Escherichia coli = assay: Agar diffusion test, cytotoxic potential (ASTM F895); conditions: antimicrobial composition in wells punched into inoculated agar, 78° F., 24 hours; FIG. 1
Description: The instant example evaluated various antimicrobial compositions for cytotoxic potential. Briefly, ASTM […] is a test method useful for assessing the cytotoxic potential of new materials and formulations and as part of a quality control program for established medical devices and components. Qualitative results of the potency of various antimicrobial compositions were evaluated using this test method. […] The testing wells were then compared to one another based on the zone of inhibition of cell or spore growth created for each well. Petri dishes were place in an incubator at 78° F. for 24 hours. The zones of inhibition around each well were then compared and the best two antimicrobial compositions from this example were utilized in subsequent testing.

Staphylococcus aureus = assay: Antimicrobial activity under dynamic contact conditions (ASTM E2149-13a), dynamic shaker test, compositions comprising a polymer; conditions: FIG. 3
Description: The instant example evaluated various antifoulant compositions for antimicrobial activity under dynamic contact conditions. Briefly, ASTM E2149-13a is a test standard for determining antimicrobial activity of antimicrobial compositions under dynamic contact conditions. The 2×2 inch antifoulant composition samples from Example 1 and Example 2 were placed in sterilized 500 mL flasks with 100 mL of distilled water.
For antifoulant compositions comprising a polymer, Staphylococcus aureus (gram-positive bacteria) were added to each flask at 3×10^6 VC/mL. For antifoulant compositions comprising a composite material, Escherichia coli (gram-negative bacteria) were added to each flask at approximately 1×10^6 cells/mL. Three samples (0.1 mL each) were taken immediately from each flask and spread on TSA plates. The flasks were incubated in a 37° C. shaking incubator at 200 rpm. Three samples (0.1 mL each) were removed and plated at 1 hour intervals for three hours. Plates were left for growth at 25° C. for 60 hours. Colonies were counted using Sphere Flash and the average VC/mL or colony forming units (CFU) were documented.

Compound	efficacies and performance with both gram-positive and gram-negative bacteria [1]	inhibition of bacterial growth per visible zone of inhibition around the sample (Escherichia coli)	antibacterial efficacy (Staphylococcus aureus; S. aureus, dynamic fluid conditions, antifoulant composition comprising a polymer (HDPE))	relative antimicrobial efficacy among tested antimicrobials (Staphylococcus aureus; antimicrobials in antifoulant compositions comprising a polymer (HDPE), dynamic flow conditions)
zinc pyrithione	highest efficacies and performance	demonstrated efficacy in inhibiting bacterial growth	99.9%	most efficacious
[O]=[Zn] [zinc oxide]	–	demonstrated efficacy in inhibiting bacterial growth	–	–
